ChEMBL document CHEMBL1145291, “Metal complexes with superoxide dismutase-like activity as candidates for anti-prion drug” (Bioorg Med Chem Lett, 2006)

Legend:
ScN2a [1] = assay: Cytotoxicity against mouse ScN2a cells at 100 uM; type: cell-based
[2] = Cytotoxicity against prion Fukuoka1 strain infected mouse N2a#58 cells at 100 uM; type: cell-based
[3] = Cytotoxicity against prion Fukuoka1 strain infected mouse N2a#58 cells up to 1uM; type: cell-based
ScN2a [4] = assay: Cytotoxicity against mouse ScN2a cells up to 1 uM; type: cell-based
ScN2a [5] = assay: Inhibition of PrP-res formation in mouse ScN2a cells relative to control; type: functional, cell-based
[6] = Inhibition of PrP-res formation in prion Fukuoka1 strain infected mouse N2a#58 cells relative to control; type: functional

Row | SMILES | Activity (ScN2a [1]) | Activity [2] | Activity [3] | Activity (ScN2a [4]) | IC50 (ScN2a [5]) [nM] | IC50 [6] [nM]
1 | Oc1cccc2cccnc12 [OXYQUINOLINE] | Active | Active |  |  |  | 
2 | Cc1ccc2ccc3ccc(C)nc3c2n1 [NEOCUPROINE] |  |  | Not Active | Not Active | 80 | 
3 | Cc1cc(-c2ccccc2)c2ccc3c(-c4ccccc4)cc(C)nc3c2n1 [BATHOCUPROINE] |  |  | Not Active | Not Active | 80 | 200
4 | C[n+]1ccc(-c2c3nc(c(-c4cc[n+](C)cc4)c4ccc([nH]4)c(-c4cc[n+](C)cc4)c4nc(c(-c5cc[n+](C)cc5)c5ccc2[nH]5)C=C4)C=C3)cc1 |  |  |  |  | 130 | 160
5 | c1ccc2cc(-c3ccc4ccccc4n3)ncc2c1 |  |  | Not Active | Not Active | 5 | 250
6 | C1=Cc2nc1c(-c1ccccc1)c1nc(c(-c3ccccc3)c3ccc([nH]3)c(-c3ccccc3)c3ccc([nH]3)c2-c2ccccc2)C=C1 [TETRAPHENYLPORPHYRIN] |  |  |  |  | 10 | 320
7 | O=C([O-])c1cc(-c2cc(C(=O)[O-])c3ccccc3n2)nc2ccccc12.[Na+].[Na+] |  |  | Not Active | Not Active |  | 
8 | c1cnc2c(c1)ccc1cccnc12 [PHENANTHROLINE] | Active | Active |  |  |  | 
9 | O=S(=O)(O)c1ccc(-c2c3nc(c(-c4ccc(S(=O)(=O)O)cc4)c4ccc([nH]4)c(-c4ccc(S(=O)(=O)O)cc4)c4ccc([nH]4)c(-c4ccc(S(=O)(=O)O)cc4)c4nc2C=C4)C=C3)cc1 [TETRAPHENYLPORPHINE TETRASULFONIC ACID] |  |  |  |  | 200 | 160
10 | c1ccc(-c2cccc(-c3ccccn3)n2)nc1 [TERPYRIDINE] | Active | Active |  |  |  | 
11 | O=C(O)c1ccc(-c2c3nc(c(-c4ccc(C(=O)O)cc4)c4ccc([nH]4)c(-c4ccc(C(=O)O)cc4)c4ccc([nH]4)c(-c4ccc(C(=O)O)cc4)c4nc2C=C4)C=C3)cc1 |  |  |  |  | 250 | 160
